{"source": "paper PMC12720774", "about": "“Detergents alter the stability and lipid binding properties of the CD1d immunoreceptor” (Protein Science : A Publication of the Protein Society, 2025)", "key": {"[1]": {"target": "T1, CSP 319‐328/HLA‐B*08:01/hβ2M complex (Homo sapiens, UniProt P01889, A93T/A95T/D138N/E176V/E187T/K202T/Q94N/R180D/S35A/V36M/Y33D/Y91F)", "T1 construct": "made in house", "assay": "ITF with peptide/HLA complex", "type": "binding", "settings": "for ITF change in Trp fluorescence (F-F0/F0): peptide/HLA with Tween 20, replicates", "description": "(§1) To determine whether detergent effects were specific to hCD1d, we performed analogous ITF, MST, and nanoDSF experiments with a peptide/HLA complex. HLA‐B*08:01, presenting the Plasmodium falciparum derived peptide […] ([…]), was selected as a representative model system since the peptide antigen contains hydrophilic solvent‐exposed residues in the antigen‐binding groove (Frooman et al., [2025]). Although structurally similar to that of hCD1d, HLA‐B*08:01 shares low sequence identity (Figure S10a). […] By nanoDSF, ODG caused minimal destabilization of either complex (ΔT m≈−0.2 to −0.8°C; Figure S10f). […] We posit that lipid‐specific unloading effects of detergent are due to either hydrophobic residues in the antigen binding groove (detergent‐CD1d interactions) and/or the hydrophobic nature of the lipid antigen (detergent‐lipid interactions).\n(§2) For comparison with peptide/HLA molecules, we prepared recombinant CSP 319‐328/HLA‐B*08:01/hβ2M complex using in vitro refolding methods fully described previously (Frooman et al., [2025]). The peptide sequence for CSP 319–328 is […]. This peptide was chosen since it contains Lys, Gln, and Asp residues predicted to be solvent‐exposed in the HLA‐B*08:01 binding groove (Frooman et al., [2025]).\nITF experiments with peptide/HLA molecules and detergents were performed using an analogous protocol."}, "hCD1d": {"target": "hCD1d (Homo sapiens, UniProt P15813+P61769)", "sequence (P61769+P15813 fused)": "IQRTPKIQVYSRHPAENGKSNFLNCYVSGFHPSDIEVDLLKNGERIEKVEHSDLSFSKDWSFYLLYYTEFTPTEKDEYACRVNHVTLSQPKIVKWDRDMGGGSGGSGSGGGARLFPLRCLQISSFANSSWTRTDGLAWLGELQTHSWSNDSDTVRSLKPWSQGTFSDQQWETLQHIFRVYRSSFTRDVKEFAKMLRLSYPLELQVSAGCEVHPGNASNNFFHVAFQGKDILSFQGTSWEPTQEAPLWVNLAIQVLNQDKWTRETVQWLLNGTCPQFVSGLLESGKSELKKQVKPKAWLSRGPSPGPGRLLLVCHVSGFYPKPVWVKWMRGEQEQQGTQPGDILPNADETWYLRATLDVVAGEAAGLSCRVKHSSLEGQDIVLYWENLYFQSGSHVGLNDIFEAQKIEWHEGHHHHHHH", "assay": "Nano differential scanning fluorimetry (nanoDSF) thermal stability", "type": "binding", "design": "TEV protease cleavage site ENLYFQS (C); BirA biotinylation site (C); His7 (C); made in house; host or cells: TurboCHO cells (GenScript)"}, "[2]": {"target": "T1, CSP 319‐328/HLA‐B*08:01/hβ2M complex", "assay": "MST with peptide/HLA complex", "type": "binding", "settings": "for MST normalized fluorescence signal (Fnorm): peptide/HLA with Tween 20, replicates", "description": "as §1, §2\nMST experiments with peptide/HLA molecules and detergents were performed using an analogous protocol."}, "CD1c": {"system": "CD1c", "design": "method as in Mansour et al., 2016", "settings": "ref Mansour et al., 2016; cited from earlier work"}, "[3]": {"settings": "concentration 6.25e-5 (unit not given)"}, "[4]": {"settings": "concentration 0.000125 (unit not given)"}, "[5]": {"settings": "concentration 0.00025 (unit not given)"}}, "note": "Values joined by “and” are separate entries in the source; they are usually repeats but may differ in a detail not shown here. Identical values can stand only once."}
{"substance": "Tween 20", "values": [{"measurement": "Kd", "setting": "[1]; 100 nM peptide/HLA, 25°C, read-out: K D (ITF), peptide/HLA", "value": "7.7 ± 0.8", "unit": "µM"}, {"measurement": "ITF change in Trp fluorescence (F-F0/F0)", "setting": "[1]; concentration 3.05e-8 (unit not given)", "value": 0}, {"measurement": "ITF change in Trp fluorescence (F-F0/F0)", "setting": "[1]; concentration 6.1e-8 (unit not given)", "value": "-0.0537 and 0.114 and 0.0797"}, {"measurement": "ITF change in Trp fluorescence (F-F0/F0)", "setting": "[1]; concentration 1.22e-7 (unit not given)", "value": "0.119 and -0.000172 and -0.0554"}, {"measurement": "ITF change in Trp fluorescence (F-F0/F0)", "setting": "[1]; concentration 2.44e-7 (unit not given)", "value": "-0.00869 and 0.126 and 0.0688"}, {"measurement": "ITF change in Trp fluorescence (F-F0/F0)", "setting": "[1]; concentration 4.88e-7 (unit not given)", "value": "0.121 and 0.101 and 0.0628"}, {"measurement": "ITF change in Trp fluorescence (F-F0/F0)", "setting": "[1]; concentration 9.77e-7 (unit not given)", "value": "0.12 and -0.0283 and -0.0494"}, {"measurement": "ITF change in Trp fluorescence (F-F0/F0)", "setting": "[1]; concentration 1.95e-6 (unit not given)", "value": "0.159 and 0.0122 and -0.04"}, {"measurement": "ITF change in Trp fluorescence (F-F0/F0)", "setting": "[1]; concentration 3.91e-6 (unit not given)", "value": "0.0962 and 0.218 and 0.169"}, {"measurement": "ITF change in Trp fluorescence (F-F0/F0)", "setting": "[1]; concentration 7.81e-6 (unit not given)", "value": "0.176 and 0.206 and 0.0921"}, {"measurement": "ITF change in Trp fluorescence (F-F0/F0)", "setting": "[1]; concentration 1.56e-5 (unit not given)", "value": "0.336 and 0.182 and 0.11"}, {"measurement": "ITF change in Trp fluorescence (F-F0/F0)", "setting": "[1]; concentration 3.13e-5 (unit not given)", "value": "0.356 and 0.339 and 0.0994"}, {"measurement": "ITF change in Trp fluorescence (F-F0/F0)", "setting": "[1]; [3]", "value": "0.189 and 0.365 and 0.248"}, {"measurement": "ITF change in Trp fluorescence (F-F0/F0)", "setting": "[1]; [4]", "value": "0.38 and 0.23 and 0.139"}, {"measurement": "ITF change in Trp fluorescence (F-F0/F0)", "setting": "[1]; [5]", "value": "0.261 and 0.271 and 0.181"}, {"measurement": "ΔTm aveage", "setting": "hCD1d; Figure 5C, nanoDSF, hCD1d with detergent", "value": -8.33, "unit": "°C"}, {"measurement": "ΔT m (NanoDSF)", "setting": "hCD1d; T m difference between hCD1d in the absence and presence of 1000 μM detergent, 1 μM hCD1d", "value": "-8.3 ± 0.2", "unit": "°C"}, {"measurement": "ΔT m (nanoDSF), lipid/hCD1d", "setting": "hCD1d; absence vs maximum concentration of detergent, 1 μM endo/hCD1d (Figure S10)", "value": "≈ −8.3 °C"}, {"measurement": "ΔT m, detergent class summary", "setting": "hCD1d; approximate", "value": "−8 to −10", "unit": "°C"}, {"measurement": "Kd", "setting": "[2]; 100 nM AF647‐labeled peptide/HLA, 25°C, read-out: K D (MST), peptide/HLA", "value": "10.1 ± 2.8", "unit": "µM"}, {"measurement": "MST normalized fluorescence signal (Fnorm)", "setting": "[2]; concentration 3.05176e-8 (unit not given)", "value": "826.857 and 829.996 and 831.035"}, {"measurement": "MST normalized fluorescence signal (Fnorm)", "setting": "[2]; concentration 6.10352e-8 (unit not given)", "value": "827.636 and 831.405 and 830.579"}, {"measurement": "MST normalized fluorescence signal (Fnorm)", "setting": "[2]; concentration 1.2207e-7 (unit not given)", "value": "825.955 and 829.58 and 832.602"}, {"measurement": "MST normalized fluorescence signal (Fnorm)", "setting": "[2]; concentration 2.44141e-7 (unit not given)", "value": "826.8 and 829.861 and 831.726"}, {"measurement": "MST normalized fluorescence signal (Fnorm)", "setting": "[2]; concentration 4.88281e-7 (unit not given)", "value": "824.798 and 829.349 and 832.449"}, {"measurement": "MST normalized fluorescence signal (Fnorm)", "setting": "[2]; concentration 9.76563e-7 (unit not given)", "value": "827.728 and 832.261 and 832.695"}, {"measurement": "MST normalized fluorescence signal (Fnorm)", "setting": "[2]; concentration 1.95313e-6 (unit not given)", "value": "829.662 and 834.525 and 833.392"}, {"measurement": "MST normalized fluorescence signal (Fnorm)", "setting": "[2]; concentration 3.90625e-6 (unit not given)", "value": "826.877 and 835.214 and 835.492"}, {"measurement": "MST normalized fluorescence signal (Fnorm)", "setting": "[2]; concentration 7.8125e-6 (unit not given)", "value": "836.072 and 833.005 and 835.4"}, {"measurement": "MST normalized fluorescence signal (Fnorm)", "setting": "[2]; concentration 1.5625e-5 (unit not given)", "value": "830.346 and 831.213 and 835.161"}, {"measurement": "MST normalized fluorescence signal (Fnorm)", "setting": "[2]; concentration 3.125e-5 (unit not given)", "value": "838.975 and 840.638 and 846.826"}, {"measurement": "MST normalized fluorescence signal (Fnorm)", "setting": "[2]; [3]", "value": "839.005 and 846.034 and 849.234"}, {"measurement": "MST normalized fluorescence signal (Fnorm)", "setting": "[2]; [4]", "value": "840.518 and 838.062 and 842.957"}, {"measurement": "MST normalized fluorescence signal (Fnorm)", "setting": "[2]; [5]", "value": "834.255 and 840.226 and 843.206"}, {"measurement": "MST normalized fluorescence signal (Fnorm)", "setting": "[2]; concentration 0.0005 (unit not given)", "value": "839.953 and 837.123 and 843.815"}, {"measurement": "MST normalized fluorescence signal (Fnorm)", "setting": "[2]; concentration 0.001 (unit not given)", "value": "833.107 and 838.64 and 841.342"}, {"measurement": "stripping of lipid antigens from CD1c (in words)", "setting": "CD1c", "value": "could efficiently strip lipid antigens away"}]}
